Consider 3 compounds from patent US20090246153A1, “COSMETIC COMPOSITIONS FOR THE INHIBITION OF REACTIVE OXYGEN SPECIES” (Nu Skin International, Inc., priority 2008, published 2009).

Assay [1] relates to arNOX. As to conditions: cited from earlier work.
Assay [2] concerns arNOX. Nature of the assay: arNOX inhibition: superoxide formation measured by reduction of ferric cytochrome c, serum or buffy coats. It is filed as biochemical. The method, then:
Superoxide Production By Buffy Coats: Buffy coats, a mixture of lymphocytes and platelets. Such buffy coats are commercially available from, for example Rockland ImmunoChemicals (Gilbertsville, Pa.). The blood samples were maintained at 4° C. prior to collection and assay. Ca. 10^7 cells were added to each assay. Cell numbers were determined using a hemocytometer.
Reduction of ferric cytochrome c by superoxide was employed as a standard measure of superoxide formation (Mayo, L. A. and Cumutte, J. (1990) Meth. Enzyme. 186, 567-575. 7. Butler, J, Koppenol, W. H. and Margollash, E. (1982) J. Biol. Chem. 257, 10747). This is a widely accepted method when coupled to superoxide dismutase inhibition for the measurement of superoxide generation. The assay consists of 150 μl serum or 40 μl buffy coats in PBSG buffer (8.06 g NaCl, 0.2 g KCl, 0.18 g Na2HPO4, 0.26 g KH2PO4, 0.13 g CaCl2, 0.1 g MgCl2 1.35 g glucose dissolved in 1000 ml deionized water, adjusted to pH 7.4, filtered and stored at 4° C.) Rates were determined using an SLM Aminco DW-2000 spectrophotometer (Milton Roy, Rochester, N.Y., USA) in the dual wave length mode of operation with continuous measurements over 1 min every 1.5 min. After 45 min, test compounds were added and the reaction was continued for 45 min. After 45 min. A millimolar extinction coefficient of 19.1 cm^−1 was used for reduced ferricytochrome c. The results of the test compounds are provided in Table I. Extracts were made of the compounds in water unless otherwise indicated.

`COC1=C(OC)C(=O)C(C/C=C(\C)CC/C=C(\C)CC/C=C(\C)CC/C=C(\C)CC/C=C(\C)CC/C=C(\C)CC/C=C(\C)CC/C=C(\C)CC/C=C(\C)CCC=C(C)C)=C(C)C1=O` [co-enzyme Q, ubiquinone]: the “arNOX activity of aging cells” value in the assay on arNOX [1] is reported as “inhibited”.
In the case of `CC1=C(/C=C/C(C)=C/C=C/C(C)=C/C=C/C=C(C)/C=C/C=C(C)/C=C/C2=C(C)CCCC2(C)C)C(C)(C)CCC1` [β-Carotene], the “ArNOX ACTIVITY % OF NO ADDITION” value amounted to 73% in the assay on arNOX [2] (Ethanol, 0.25 μg/ml); 50% in the assay with arNOX [2] (Ethanol, 2.5 μg/ml); 68% with arNOX [2] (Ethanol, 25 μg/ml); 28% with arNOX [2] (Water, 25 μg/ml). Moreover, the “INHIBITION (−) or STIMULATION (+)” value in the assay on arNOX [2] (Ethanol, 0.25 μg/ml) is −42%; in the assay on arNOX [2] (Ethanol, 2.5 μg/ml), −50%; with arNOX [2] (Ethanol, 25 μg/ml), −32%; with arNOX [2] (Water, 25 μg/ml), −72%.
Turning to `CC1=C(/C=C/C(C)=C/C=C/C(C)=C/C=C/C=C(C)/C=C/C=C(C)/C=C/C2=C(C)C(=O)[C@@H](O)CC2(C)C)C(C)(C)C[C@H](O)C1=O` [Natural astaxanthin, astaxanthin], in the assay with arNOX [2] (Ethanol, 25 μg/ml), the “ArNOX ACTIVITY % OF NO ADDITION” value is 62% and the “INHIBITION (−) or STIMULATION (+)” value is on record as −38%.
